Tests used:
Type in all cases: cell-based, Wistar sucking mice
[1] = system: cardiomyocytes; assay: Measurement of cell inhibition rate (MTT) on normal primary cardiomyocytes; details: 48 h; for inhibition at 300 µM: Cardiomyocyte; for Inhibition rate (%) of cardiomyocytes: 300 μM
Method: (§1) The isolation and culture of cardiomyocytes were performed by referring to the differential adhesion method (Kreider, A. Messing, H. Doan, S. U. Kim, R. P. Lisak and D. E. Pleasure, Enrichment of Schwann cell cultures from neonatal rat sciatic nerve by differential adhesion, Brain Res 2 (1981), pp. 433-444). Wistar sucking mice newborn within 24 h were used, sterilized at skin of ventrum with iodine tincture and ethanol, subjected to thoracotomy using scissors at subxiphoid median line with a deviation to left, heart was taken out after slant thoracotomy and placed in PBS precooled with ice; the heart was softly blown and beaten with 0.01 M PBS to remove blood cells and other tissues, then cut into pieces with 0.5 mm^3 size, washed with 0.01 M PBS repeatedly for 2-3 times; the pieces were placed in conical flask, added with 4 ml of 0.125% pancretin, 1 ml of 0.1% collagenase II (final concentrations separately being 0.1% and 0.02%), shaken in 37° C. water bath for 10 min, the supernatant was discarded; then 4 ml of 0.125% pancretin and 1 ml of 0.1% collagenase II again, shaken in 37° C. water bath for digestion for 10 min, the supernatant was sucked and transferred to a centrifuge tube, and the supernatant was added with DMEM containing 10% FBS to terminate digestion; the step of shaking and digestion in water bath was repeated for 3-4 times, until the tissue pieces were completely digested; the collected cell suspension was centrifuged under 1000 rpm for 10 min, the supernatant was removed, then a culture medium was added for resuspension; the resuspended cells were inoculated in a cell culture flask, placed in CO2 incubator at 37° C. for incubation for 1.5 h, then the culture medium was sucked out, countered under microscope, then DMEM culture medium containing 10% FBS was used to adjust cell density, inoculated in an amount of 1×10^4 to a 96-well plate, placed in 5% CO2 incubator at 37° C. for 24 h, then half medium was replaced, a culture medium containing 0.1% Brdu was supplementally added; then the medium was replaced once per 48 h, and primary cardiomyocytes were obtained after 4 days of cultivation.
The isolated primary culture of cardiomyocytes was inoculated in an amount of 10^4 cells per well to a 96-well plate, and the volume of each well was 100 μl (marginal wells were filled with sterile PBS). […] After continuous inoculation for 48 h, each well was added with 20 μl of MTT solution (5 mg/ml, formulated with PBS (pH=7.4), i.e., 0.5% MTT), and the cultivation was continued for 4 h. After the end of cultivation, culture medium in wells was carefully sucked out. Each well was added with 150 μl of DMSO, shaken at a low speed in a shaking table for 10 min, so that the crystal was sufficiently dissolved. The optical density (OD) value of each well was measured at wavelength of 550 nm by enzyme-linked immunoassay instrument, and each well was repeatedly measured for 5 times and the results were recorded.

[2] = system: TG-induced cardiomyocytes apoptosis; assay: Protection against TG-induced cardiomyocyte apoptosis (MTT)
Method: as §1
The isolated primary culture of cardiomyocytes was inoculated in an amount of 10^4 cells per well to a 96-well plate, and the volume of each well was 100 μl (marginal wells were filled with sterile PBS). After being cultivated in 5% CO2 and 37° C. incubator for 4 d, they were added with the compound of Formula I at different concentrations (0.3 μM, 1 μM, 3 μM, 10 μM, 30 μM, 100 μM), 3 double-wells were set for each concentration, at the same time, zero setting wells (culture medium, MTT, DMSO), and control wells (culture medium, DMSO) were also set. After continuous inoculation for 48 h, each well was added with 20 μl of MTT solution (5 mg/ml, formulated with PBS (pH=7.4), i.e., 0.5% MTT), and the cultivation was continued for 4 h. After the end of cultivation, culture medium in wells was carefully sucked out. Each well was added with 150 μl of DMSO, shaken at a low speed in a shaking table for 10 min, so that the crystal was sufficiently dissolved. The optical density (OD) value of each well was measured at wavelength of 550 nm by enzyme-linked immunoassay instrument, and each well was repeatedly measured for 5 times and the results were recorded.
Cardiomyocytes were subjected to the primary culture for 4 days according to the above method, and then added with thapsigargin (TG) to induce apoptosis. The compound of the present invention was added for pretreatment 30 min before inducing apoptosis. […] TG was formulated with DMSO, the mother liquid was of 4 mM; and the compound of the present invention was formulated with DMSO, and the mother liquid was of 150 mM. The cell survival rate was measured according to the above MTT method, so as to test the protection effects of the compound of the present invention on the TG-induced cardiomyocytes apoptosis, and the results are shown in Table 2. […]

[3] = system: cardiomyocyte apoptosis induced by anoxia; assay: Protection against anoxia-induced cardiomyocyte apoptosis (HCS fluorescence staining); details: for Nucleus area (%): Hoechst staining; for Mitochondrial transmembrane potential: MitoTracker Red
Method: as §1
Cardiomyocyte was obtained by primary culture according to Example 18, cell density 10^4/mL, each wall was added with 100 μL of suspension of the cells. The cells were incubated at 37° C., 5% CO2 environment for 96 h (replacing solution once per 48 h). After primary culture for 4 days, cell apoptosis was induced by placing in an anoxia incubator, the compounds of the present invention at different concentrations were added for pretreatment 30 min before inducing cell apoptosis, then placed in 37° C., 5% CO2-95% N2 incubator and cultured for 15.5 h. It was 30 min before the compound incubation finished, 50 μL of culture medium, 50 μL of Mitotracker/Hoechst solution, were added, and the cells were then continuously cultured at 37° C., 5% CO2-95% N2 for 30 min.
Each well was directly added with 100 μL of fixing solution, without sucking out the culture medium, incubated at room temperature in fume cupboard for 10 min. The pre-heated fixing solution was very important for keeping cell integrity.
The solution of each well was sucked out (the plate could be turned over), washed with 1× Wash Buffer (100 μL/well) once. Carefulness was kept during operation and washing procedure to maintain cell adhesion and integrity. Good results could be obtained by slowly sucking and releasing liquid. Wash Buffer was sucked out, 1× penetrating membrane solution (100 uL/well) was added, incubated at room temperature for 15 min. The penetrating membrane solution was sucked out, each well was washed once with 100 μL/well of 1× Wash Buffer. The Wash Buffer was sucked out, each well was added with 50 μL of Alexa Fluor 488 Phalloidin Solution, incubated at room temperature in dark for 30 min. The Alexa Fluor 488 Phalloidin solution was sucked out, washed with 1× Wash Buffer for three times, and the solution of the last time was kept in the well. […]

[4] = compound 1 μM + TG 0.4 uM, pretreatment 30 min
[5] = compound 3 μM + TG 0.4 uM, pretreatment 30 min
[6] = compound 10 μM + TG 0.4 uM, pretreatment 30 min
[7] = compound 0.3 μM + TG 0.4 uM, pretreatment 30 min

CC(C)NC(=S)NC(NC(=O)/C=C/c1cccs1)C(Cl)(Cl)Cl (stereo not drawn) [Example 7, (2E)-3-(2-thienyl)-N-[1-isopropylaminothioformylamino-2,2,2-trichloroethyl]-2-acrylamide]
inhibition at 300 µM [1]: 1.32 ± 3.42%
Survival rate (%) of Cardiomyocyte [2, 4]: 69 ± 5%
Survival rate (%) of Cardiomyocyte [2, 5]: 70 ± 8%
Survival rate (%) of Cardiomyocyte [2, 6]: 77 ± 11%

C/C=C(/C)C(=O)O[C@H]1C(C)=C2[C@H]([C@@H]1OC(=O)CCCCCCC)[C@@](C)(OC(C)=O)C[C@H](OC(=O)CCC)[C@@]1(O)[C@H]2OC(=O)[C@@]1(C)O [TG, thapsigargin, reference compound]
Survival rate (%) of Cardiomyocyte ([2]; TG alone 0.4 uM (apoptosis inducer)): 59 ± 1.1%

COC(=O)c1ccccc1NC(=S)NC(NC(=O)/C=C/c1cccs1)C(Cl)(Cl)Cl (stereo not drawn) [Example 10, (2E)-3-(2-thienyl)-N-[1-(2-methoxyformylanilino)thioformylamino-2,2,2-trichloroethyl]-2-acrylamide]
inhibition at 300 µM [1]: 3.24 ± 1.7%

O=C(/C=C/c1cccs1)NC(NC(=S)Nc1cccc2cccnc12)C(Cl)(Cl)Cl (stereo not drawn) [Example 1, (2E)-3-(2-thienyl)-N-[1-(8-quinolylamino)thioformylamino-2,2,2-trichloroethyl]-2-acrylamide]
light flux ([3]; 10 μM): 1201.92 ± 29.95
Nucleus area (%) ([3]; 10 μM): 112.61 ± 7.78%
Mitochondrial transmembrane potential ([3]; 10 μM): 112.68 ± 1.46

(2E)-3-(2-thienyl)-N-[1-(4-methylpiperazinyl)thioformylamino-2,2,2-trichloroethyl]-2-acrylamide [Example 13]
Inhibition rate (%) of cardiomyocytes [1]: 1.66 ± 2.70%
Mitochondrial transmembrane potential ([3]; 3 μM): 116.41 ± 0.64
Survival rate (%) of Cardiomyocyte [2, 7]: 72 ± 3%
Survival rate (%) of Cardiomyocyte [2, 4]: 71 ± 3%
Survival rate (%) of Cardiomyocyte [2, 5]: 67 ± 3%

O=C(/C=C/c1cccs1)NC(NC(=S)NC1CCCCC1)C(Cl)(Cl)Cl (stereo not drawn) [Example 6, (2E)-3-(2-thienyl)-N-(1-cyclohexylaminothio formylamino-2,2,2-trichloroethyl)-2-acrylamide]
inhibition at 300 µM [1]: 5.54 ± 3.61%
light flux ([3]; 1 μM): 1077.08 ± 55.63
Nucleus area (%) ([3]; 1 μM): 100.00 ± 4.63%
Mitochondrial transmembrane potential ([3]; 1 μM): 112.92 ± 0.82
Survival rate (%) of Cardiomyocyte [2, 4]: 76 ± 7%
Survival rate (%) of Cardiomyocyte [2, 5]: 70 ± 6%
Survival rate (%) of Cardiomyocyte [2, 6]: 78 ± 9%

COc1ccccc1NC(=S)NC(NC(=O)/C=C/c1cccs1)C(Cl)(Cl)Cl (stereo not drawn) [Example 4, (2E)-3-(2-thienyl)-N-[1-(2-methoxyanilino)thioformylamino-2,2,2-trichloroethyl]-2-acrylamide]
inhibition at 300 µM [1]: 5.55 ± 2.29%

O=C(/C=C/c1cccs1)NC(NC(=S)NC1CCCCCC1)C(Cl)(Cl)Cl (stereo not drawn) [Example 11, (2E)-3-(2-thienyl)-N-(1-cycloheptylaminothioformylamino-2,2,2-trichloroethyl)-2-acrylamide]
inhibition at 300 µM [1]: 7.62 ± 5.77%

O=C(/C=C/c1cccs1)NC(NC(=S)Nc1ccccc1F)C(Cl)(Cl)Cl (stereo not drawn) [Example 8, (2E)-3-(2-thienyl)-N-[1-(2-fluoroanilino)thioformylamino-2,2,2-trichloroethyl]-2-acrylamide]
inhibition at 300 µM [1]: 6.82 ± 1.21%

O=C(/C=C/c1cccs1)NC(NC(=S)NCc1ccccc1)C(Cl)(Cl)Cl (stereo not drawn) [Example 5, (2E)-3-(2-thienyl)-N-(1-benzylaminothioformylamino-2,2,2-trichloroethyl)-2-acrylamide]
inhibition at 300 µM [1]: 0.76 ± 4.04%
light flux ([3]; 0.3 μM): 1331.12 ± 53.30
Nucleus area (%) ([3]; 0.3 μM): 120.23 ± 5.49%
Mitochondrial transmembrane potential ([3]; 0.3 μM): 117.76 ± 1.87
Survival rate (%) of Cardiomyocyte [2, 7]: 82 ± 4%
Survival rate (%) of Cardiomyocyte [2, 4]: 76 ± 8%
Survival rate (%) of Cardiomyocyte [2, 5]: 74 ± 9%

CC(C)OCCCNC(=S)NC(NC(=O)/C=C/c1cccs1)C(Cl)(Cl)Cl (stereo not drawn) [Example 9, (2E)-3-(2-thienyl)-N-[1-(3-isopropoxypropylamino)thioformylamino-2,2,2-trichloroethyl]-2-acrylamide]
inhibition at 300 µM [1]: 5.3 ± 0.95%

(2E)-3-(2-thienyl)-N-[1-(1-morpholinyl)thioformyl amino-2,2,2-trichloroethyl]-2-acrylamide [Example 12]
Inhibition rate (%) of cardiomyocytes [1]: 10.44 ± 5.66%
Nucleus area (%) ([3]; 10 μM): 102.93 ± 5.12%
Mitochondrial transmembrane potential ([3]; 10 μM): 133.11 ± 6.30
Survival rate (%) of Cardiomyocyte [2, 7]: 79 ± 7%
Survival rate (%) of Cardiomyocyte [2, 4]: 80 ± 9%
Survival rate (%) of Cardiomyocyte [2, 5]: 83 ± 11%

CS/C(=N\C(NC(=O)/C=C/c1cccs1)C(Cl)(Cl)Cl)Nc1cccc2cccnc12 (stereo not drawn) [Example 14, (2E)-3-(2-thienyl)-N-[1-(8-quinolylamino)methylthiomethenylamino-2,2,2-trichloroethyl]-2-acrylamide]
inhibition at 300 µM [1]: 8.34 ± 5.78%
